Experimental data taken from EP3046573B1, “AMYLIN ANALOGUES” (Zealand Pharma A/S, priority 2013, dated 2015).
Read-outs that look alike come from different tables or passages of the source. Numbered stars: 1 amine (or outer) side, 2 acyl side, 3 side chain; on linkers, the order of the positions; unused ones are H or OH. Bridge positions count the residues as written; N and C are the ends. Square brackets hold non-standard residues; d marks the D form. Peptide text beside a SMILES is read from it. * marks the point of attachment. C20 diacid = O=C(O)CCCCCCCCCCCCCCCCCCC(=O)*; γGlu = O=C(O)[C@H](CCC(=O)[*:2])N[*:1]; Hyp = O=C(O)[C@@H]1C[C@@H](O)CN1; NMeI = CC[C@H](C)[C@H](NC)C(=O)O; Sar = CNCC(=O)O

Experiments:
[1] = target: T1, human calcitonin receptor (hCTR2) (Homo sapiens, UniProt P30988); test: hCTR2 assay: induction of cAMP (AlphaScreen cAMP Assay kit) in COS7 cells expressing hCTR2; type: cell-based
T1 construct: expressed in transfected cells
T1 sequence (P30988 25-474): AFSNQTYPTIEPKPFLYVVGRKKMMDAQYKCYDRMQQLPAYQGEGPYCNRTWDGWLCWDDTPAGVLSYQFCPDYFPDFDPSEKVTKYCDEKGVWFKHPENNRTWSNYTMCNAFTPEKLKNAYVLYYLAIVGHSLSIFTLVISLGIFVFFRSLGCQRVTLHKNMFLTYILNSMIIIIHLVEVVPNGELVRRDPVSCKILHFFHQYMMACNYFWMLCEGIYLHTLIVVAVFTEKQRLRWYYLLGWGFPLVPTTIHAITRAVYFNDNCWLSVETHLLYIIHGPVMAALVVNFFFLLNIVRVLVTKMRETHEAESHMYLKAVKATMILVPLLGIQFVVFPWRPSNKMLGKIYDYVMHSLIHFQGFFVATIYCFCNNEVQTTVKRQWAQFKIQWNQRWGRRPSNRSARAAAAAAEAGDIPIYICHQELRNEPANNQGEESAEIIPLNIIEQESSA
In short: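 Functional agonism is measured as cAMP accumulation in a COS7 line stably transfected with hCTR2, lacking endogenous RAMPs. Peptides act for 15 min at 37° C with IBMX present, and curves are fitted with a 4-parameter logistic model.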

[2] = test system: Sprague Dawley (SD) rats; test: Acute food intake and body weight in normal Sprague Dawley rats; type: in vivo; details: vehicle-corrected, dose 30 nmol/kg sc, once; for Body weight loss (%) after 96 hours: mean ± SEM, n = 8
In short: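 Normal male-unspecified SD rats, n = 8 per group, given a single s.c. peptide dose of 30 nmol/kg just before dark phase, with vehicle and positive control groups. Food intake recorded at 0, 4, 7, 10, 24, 48, 72 and 96 h; body weight daily; means ± SEM.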

[3] = Solubility assessment (turbidity absorbance at 325 nm); type: physicochemical; details: stock 2 mg/ml diluted 1:1, ambient temperature (typically 25°C), n=1; for Solubility, Acetate buffer pH 4: 100 mM acetate buffer pH 4.0; for Solubility, Acetate buffer pH 5: 100 mM acetate buffer pH 5.0; for Solubility, Histidine buffer pH 6: 100 mM histidine buffer pH 6.0; for Solubility, Histidine buffer pH 7: 100 mM histidine buffer pH 7.0; for Solubility, Phosphate buffer pH 6: 100 mM phosphate buffer pH 6.0; for Solubility, Phosphate buffer pH 7: 100 mM phosphate buffer pH 7.0; for Solubility, Phosphate buffer pH 7.5: 100 mM phosphate buffer pH7.5
In short: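 Peptide stock (2 mg/ml) in water acidified to pH 2.5 with HCl was diluted 1:1 into 100 mM acetate (pH 4.0, 5.0), histidine (pH 6.0, 7.0) or phosphate (pH 6.0, 7.0, 7.5) buffer. A280 and A325 were read at about 25°C, n=1. A325 ≤ 0.02 meant solubility ≥ 1 mg/ml.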

[4] = cAMP induction in COS7 cells expressing hCTR2, average of a minimum of 3 determinations, read-out: hCTR2 EC50

EC50 [1, 4] [nM]	Compound	Food intake inhibition (%) after 48 hours [2] [%]	Body weight loss (%) after 96 hours [2] [%]	Solubility, Acetate buffer pH 4 [3]	Solubility, Acetate buffer pH 5 [3]	Solubility, Histidine buffer pH 6 [3]	Solubility, Histidine buffer pH 7 [3]	Solubility, Phosphate buffer pH 6 [3]	Solubility, Phosphate buffer pH 7 [3]	Solubility, Phosphate buffer pH 7.5 [3]	EC50 [1] [nM]
0.19	CC[C@H](C)[C@@H](C(=O)N[C@@H](CC(C)C)C(=O)N[C@@H](CO)C(=O)N[C@@H](CO)C(=O)N[C@H](C(=O)N[C@@H](CCC(=O)O)C(=O)N[C@H](C(=O)NCC(=O)N[C@@H](CO)C(=O)N[C@@H](CCC(=O)O)C(=O)N[C@H](C(=O)N1CCC[C@H]1C(N)=O)[C@@H](C)O)C(C)C)[C@@H](C)O)N(C)C(=O)[C@H](C)NC(=O)CN(C)C(=O)[C@H](Cc1ccccc1)NC(=O)[C@H](CO)NC(=O)[C@H](CO)NC(=O)[C@H](CO)NC(=O)[C@H](CO)NC(=O)[C@H](CCCNC(=N)N)NC(=O)[C@H](Cc1c[nH]cn1)NC(=O)[C@H](CC(C)C)NC(=O)[C@H](Cc1ccccc1)NC(=O)[C@H](CCC(=O)O)NC(=O)[C@H](C)NC(=O)[C@H](CC(C)C)NC(=O)[C@H](CCCNC(=N)N)NC(=O)[C@H](CCC(N)=O)NC(=O)[C@@H](NC(=O)[C@H](C)NC(=O)[C@@H]1CSSC[C@H](NC(=O)[C@H](CCCNC(=N)N)NC(=O)CC[C@H](NC(=O)CCCCCCCCCCCCCCCCCCC(=O)O)C(=O)O)C(=O)N[C@@H](CC(N)=O)C(=O)N[C@@H]([C@@H](C)O)C(=O)N[C@@H](C)C(=O)N[C@@H]([C@@H](C)O)C(=O)N1)[C@@H](C)O [Compound 76, [19CD]-isoGlu-RC()NTATC()ATQRLAEFLHRSSSSF-Gly(Me)-A-Ile(Me)-LSSTEVGSETP-NH2] ({C20 diacid-γGlu}-RCNTATCATQRLAEFLHRSSSSF[Sar]A[NMeI]LSSTEVGSETP-NH2; disulfide 2-7)	100	11 ± 1.2	SS (SS indicates solubility ≥ 1mg/ml)	II (II indicates solubility ≤ 1 mg/ml)	SS (SS indicates solubility ≥ 1mg/ml)	SS (SS indicates solubility ≥ 1mg/ml)	SS (SS indicates solubility ≥ 1mg/ml)	SS (SS indicates solubility ≥ 1mg/ml)	SS (SS indicates solubility ≥ 1mg/ml)	
0.07	CC[C@H](C)[C@@H](C(=O)N[C@@H](CC(C)C)C(=O)N[C@@H](CO)C(=O)N[C@@H](CO)C(=O)N[C@H](C(=O)N[C@@H](CCC(=O)O)C(=O)N[C@H](C(=O)NCC(=O)N[C@@H](CO)C(=O)N[C@@H](CCC(=O)O)C(=O)N[C@H](C(=O)N1CCC[C@H]1C(N)=O)[C@@H](C)O)C(C)C)[C@@H](C)O)N(C)C(=O)[C@H](C)NC(=O)CN(C)C(=O)[C@H](Cc1ccccc1)NC(=O)[C@H](CO)NC(=O)[C@H](CO)NC(=O)[C@H](CCCNC(=N)N)NC(=O)[C@H](Cc1c[nH]cn1)NC(=O)[C@H](CC(C)C)NC(=O)[C@H](Cc1ccccc1)NC(=O)[C@H](CCC(=O)O)NC(=O)[C@H](C)NC(=O)[C@H](CC(C)C)NC(=O)[C@H](CCCNC(=N)N)NC(=O)[C@H](CCC(N)=O)NC(=O)[C@@H](NC(=O)[C@H](C)NC(=O)[C@@H]1CSSC[C@H](NC(=O)[C@H](CCCNC(=N)N)NC(=O)CC[C@H](NC(=O)CCCCCCCCCCCCCCCCCCC(=O)O)C(=O)O)C(=O)N[C@@H](CC(N)=O)C(=O)N[C@@H]([C@@H](C)O)C(=O)N[C@@H](C)C(=O)N[C@@H]([C@@H](C)O)C(=O)N1)[C@@H](C)O [Compound 82, [19CD]-isoGlu-RC()NTATC()ATQRLAEFLHRSSF-Gly(Me)-A-Ile(Me)-LSSTEVGSETP-NH2] ({C20 diacid-γGlu}-RCNTATCATQRLAEFLHRSSF[Sar]A[NMeI]LSSTEVGSETP-NH2; disulfide 2-7)	93	13 ± 1.0	SS (SS indicates solubility ≥ 1mg/ml)	SS (SS indicates solubility ≥ 1mg/ml)	SS (SS indicates solubility ≥ 1mg/ml)	SS (SS indicates solubility ≥ 1mg/ml)	SS (SS indicates solubility ≥ 1mg/ml)	SS (SS indicates solubility ≥ 1mg/ml)	SS (SS indicates solubility ≥ 1mg/ml)	
	CC[C@H](C)[C@@H](C(=O)N[C@@H](CC(C)C)C(=O)N[C@@H](CO)C(=O)N[C@@H](CO)C(=O)N[C@H](C(=O)N[C@@H](CC(N)=O)C(=O)N[C@H](C(=O)NCC(=O)N[C@@H](CO)C(=O)N[C@@H](CC(N)=O)C(=O)N[C@H](C(=O)N1CCC[C@H]1C(N)=O)[C@@H](C)O)C(C)C)[C@@H](C)O)N(C)C(=O)[C@H](C)NC(=O)CN(C)C(=O)[C@H](Cc1ccccc1)NC(=O)[C@H](CC(N)=O)NC(=O)[C@H](CC(N)=O)NC(=O)[C@H](CO)NC(=O)[C@H](CO)NC(=O)[C@H](CCCNC(=N)N)NC(=O)[C@H](Cc1c[nH]cn1)NC(=O)[C@H](CC(C)C)NC(=O)[C@H](Cc1ccccc1)NC(=O)[C@H](CCC(=O)O)NC(=O)[C@H](C)NC(=O)[C@H](CC(C)C)NC(=O)[C@H](CCCNC(=N)N)NC(=O)[C@H](CCC(N)=O)NC(=O)[C@@H](NC(=O)[C@H](C)NC(=O)[C@@H]1CSSC[C@H](NC(=O)[C@H](CCCCN)NC(=O)[C@H](CCCCN)NC(=O)CC[C@H](NC(=O)CCCCCCCCCCCCCCCCCCC(=O)O)C(=O)O)C(=O)N[C@@H](CC(N)=O)C(=O)N[C@@H]([C@@H](C)O)C(=O)N[C@@H](C)C(=O)N[C@@H]([C@@H](C)O)C(=O)N1)[C@@H](C)O [Compound 87, [19CD]-isoGlu-KKC()NTATC()ATQRLAEFLHRSSNNF-Gly(Me)-A-Ile(Me)-LSSTNVGSNTP-NH2] ({C20 diacid-γGlu}-KKCNTATCATQRLAEFLHRSSNNF[Sar]A[NMeI]LSSTNVGSNTP-NH2; disulfide 3-8)	98	10 ± 1.2	SS (SS indicates solubility ≥ 1mg/ml)	SS (SS indicates solubility ≥ 1mg/ml)	SS (SS indicates solubility ≥ 1mg/ml)	SS (SS indicates solubility ≥ 1mg/ml)	SS (SS indicates solubility ≥ 1mg/ml)	SS (SS indicates solubility ≥ 1mg/ml)	SS (SS indicates solubility ≥ 1mg/ml)	0.046
	CC[C@H](C)[C@@H](C(=O)N[C@@H](CC(C)C)C(=O)N[C@@H](CO)C(=O)N[C@@H](CO)C(=O)N[C@H](C(=O)N[C@@H](CC(N)=O)C(=O)N[C@H](C(=O)NCC(=O)N[C@@H](CO)C(=O)N[C@@H](CC(N)=O)C(=O)N[C@H](C(=O)N1C[C@H](O)C[C@H]1C(N)=O)[C@@H](C)O)C(C)C)[C@@H](C)O)N(C)C(=O)[C@H](C)NC(=O)CN(C)C(=O)[C@H](Cc1ccccc1)NC(=O)[C@H](CC(N)=O)NC(=O)[C@H](CC(N)=O)NC(=O)[C@H](CO)NC(=O)[C@H](CO)NC(=O)[C@H](CCCNC(=N)N)NC(=O)[C@H](Cc1c[nH]cn1)NC(=O)[C@H](CC(C)C)NC(=O)[C@H](Cc1ccccc1)NC(=O)[C@H](CCC(=O)O)NC(=O)[C@H](C)NC(=O)[C@H](CC(C)C)NC(=O)[C@H](CCCNC(=N)N)NC(=O)[C@H](CCC(N)=O)NC(=O)[C@@H](NC(=O)[C@H](C)NC(=O)[C@@H]1CSSC[C@H](NC(=O)[C@H](CCCNC(=N)N)NC(=O)CC[C@H](NC(=O)CCCCCCCCCCCCCCCCCCC(=O)O)C(=O)O)C(=O)N[C@@H](CC(N)=O)C(=O)N[C@@H]([C@@H](C)O)C(=O)N[C@@H](C)C(=O)N[C@@H]([C@@H](C)O)C(=O)N1)[C@@H](C)O [Compound 105, [19CD]-isoGlu-RC()NTATC()ATQRLAEFLHRSSNNF-Gly(Me)-A-Ile(Me)-LSSTNVGSNT-Hyp-NH2] ({C20 diacid-γGlu}-RCNTATCATQRLAEFLHRSSNNF[Sar]A[NMeI]LSSTNVGSNT[Hyp]-NH2; disulfide 2-7)		7 ± 2.4	SS (SS indicates solubility ≥ 1mg/ml)	SS (SS indicates solubility ≥ 1mg/ml)	SS (SS indicates solubility ≥ 1mg/ml)	SS (SS indicates solubility ≥ 1mg/ml)	SS (SS indicates solubility ≥ 1mg/ml)	SS (SS indicates solubility ≥ 1mg/ml)	SS (SS indicates solubility ≥ 1mg/ml)	0.083
